{
  "source": "patent US20160000088A1",
  "about": "“PROCESS FOR PRODUCING SILVER-ION ANTIBACTERIAL LIQUID, SILVER-ION ANTIBACTERIAL LIQUID PRODUCED BY SAID PROCESS, AND SILVER-ION-CONTAINING PRODUCT CONTAINING SAID ANTIBACTERIAL LIQUID” (TAIKI CORP., LTD., priority 2013, published 2016)",
  "origin": "cited, not measured here",
  "test_system": "Staphylococcus aureus",
  "conditions": "silver ion concentration of 10 ppb; nutrient broth added (NB culture)",
  "data": [
    {"substance": "silver ions", "values": [
      {"measurement": "decrease of bacterial count", "result": "≥ 2", "unit": "logs"}
    ]}
  ]
}
